Values joined by “and” are separate entries in the source; they are usually repeats but may differ in a detail not shown here. Identical values can stand only once.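 1) Cells in 96-well plates. 2) Compound, 48 h, 5 concentrations. 3) Linear interpolation between surrounding doses. 4) Unreached endpoint = highest concentration. GI50 marks 50% less growth. TGI denotes the concentration required for complete inhibition of growth.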
Assays:
Assay in all cases: NCI tumour cell line growth inhibition, 48 h
BT-549 breast = tested on: BT-549 breast
EKVX NSCLC = tested on: EKVX NSCLC
HT29 colon = tested on: HT29 colon
LOX IMVI melanoma = tested on: LOX IMVI melanoma
NCI-H226 lung = tested on: NCI-H226 lung
OVCAR-8 ovarian = tested on: OVCAR-8 ovarian
PC-3 prostate = tested on: PC-3 prostate
SF-268 CNS = tested on: SF-268 CNS
SR leukemia = tested on: SR leukemia
TK-10 renal = tested on: TK-10 renal
UO-31 renal = tested on: UO-31 renal

CC1CCCc2c(-c3ccc(Cl)cc3)nc(N)c(C#N)c21 (stereo unspecified)
TGI (BT-549 breast): 53.4 µM | TGI (EKVX NSCLC): 65.8 µM | TGI (HT29 colon): > 100 µM | TGI (LOX IMVI melanoma): 68 µM | TGI (NCI-H226 lung): 66.2 µM | TGI (OVCAR-8 ovarian): 91.6 µM | TGI (PC-3 prostate): 82 µM | TGI (SF-268 CNS): > 100 µM | TGI (SR leukemia): 40.5 µM | TGI (TK-10 renal): > 100 µM | TGI (UO-31 renal): 61.7 µM

COc1ccc(CSCc2cc(OC)c(OC)c(OC)c2)cc1
TGI (BT-549 breast): > 100 µM | TGI (EKVX NSCLC): > 31.6 µM | TGI (HT29 colon): > 100 µM | TGI (LOX IMVI melanoma): > 31.6 µM | TGI (NCI-H226 lung): > 100 µM | TGI (OVCAR-8 ovarian): > 31.6 µM | TGI (PC-3 prostate): > 31.6 µM | TGI (SF-268 CNS): > 100 µM | TGI (SR leukemia): > 100 µM | TGI (TK-10 renal): > 100 µM | TGI (UO-31 renal): > 100 µM

CCC(=O)N(c1ccccc1)C(C)CN1CCC(O)(c2ccccc2)CC1 (stereo unspecified)
TGI (BT-549 breast): > 100 µM | TGI (EKVX NSCLC): > 100 µM | TGI (HT29 colon): > 100 µM | TGI (LOX IMVI melanoma): > 100 µM | TGI (NCI-H226 lung): > 100 µM | TGI (OVCAR-8 ovarian): > 100 µM | TGI (PC-3 prostate): > 100 µM | TGI (SF-268 CNS): > 100 µM | TGI (SR leukemia): > 100 µM | TGI (TK-10 renal): > 100 µM | TGI (UO-31 renal): > 100 µM

Cn1c(=O)nc2n(CCO)c(-c3ccccc3)c(-c3ccccc3)nc-2c1=O
TGI (BT-549 breast): > 100 µM | TGI (EKVX NSCLC): > 100 µM | TGI (HT29 colon): > 100 µM | TGI (LOX IMVI melanoma): > 100 µM | TGI (NCI-H226 lung): > 100 µM | TGI (OVCAR-8 ovarian): > 100 µM | TGI (PC-3 prostate): > 100 µM | TGI (SF-268 CNS): > 100 µM | TGI (SR leukemia): > 100 µM | TGI (TK-10 renal): > 100 µM | TGI (UO-31 renal): > 100 µM

NN/C(=N\S(=O)(=O)c1cc(Cl)c(Oc2ccc([N+](=O)[O-])cc2Cl)c(Cl)c1)Nc1ccc(Cl)cc1
TGI (BT-549 breast): 40.9 µM | TGI (EKVX NSCLC): 61.2 µM | TGI (HT29 colon): 39.1 µM | TGI (LOX IMVI melanoma): 45 µM | TGI (NCI-H226 lung): 33.4 µM | TGI (OVCAR-8 ovarian): 60.4 µM | TGI (PC-3 prostate): 81.6 µM | TGI (SF-268 CNS): 34.2 µM | TGI (SR leukemia): 57.7 µM | TGI (TK-10 renal): 56.6 µM | TGI (UO-31 renal): 32.3 µM

COC(=O)/C=C/c1cc(OC)c2c(c1)C(C(=O)OC)C(c1ccc(OC)c(OC)c1)O2 (stereo unspecified)
GI50 (BT-549 breast): 29 µM and 6.01 µM | TGI (BT-549 breast): 99.6 µM and > 100 µM | GI50 (EKVX NSCLC): 39.3 µM and 5.12 µM | TGI (EKVX NSCLC): > 100 µM | TGI (HT29 colon): > 100 µM | TGI (LOX IMVI melanoma): > 100 µM | TGI (NCI-H226 lung): > 100 µM and 25.6 µM | TGI (OVCAR-8 ovarian): > 100 µM | TGI (PC-3 prostate): > 100 µM | GI50 (SF-268 CNS): 70.7 µM and 10.7 µM | TGI (SF-268 CNS): > 100 µM | TGI (SR leukemia): > 100 µM | TGI (TK-10 renal): > 100 µM | GI50 (UO-31 renal): 32.1 µM and 8.62 µM | TGI (UO-31 renal): > 100 µM

CN1CC=C(OP(=O)(NCc2ccccc2)N(CCCl)CCCl)CC1 (stereo unspecified)
TGI (BT-549 breast): > 100 µM | TGI (EKVX NSCLC): > 100 µM | TGI (HT29 colon): > 100 µM | TGI (LOX IMVI melanoma): > 100 µM | TGI (NCI-H226 lung): > 100 µM | TGI (OVCAR-8 ovarian): > 100 µM | TGI (PC-3 prostate): > 100 µM | TGI (SF-268 CNS): > 100 µM | TGI (SR leukemia): > 100 µM | TGI (TK-10 renal): > 100 µM | TGI (UO-31 renal): > 100 µM

O=C1/C(=C/c2cccc([N+](=O)[O-])c2)CCCc2ccccc21
TGI (BT-549 breast): 28.1 µM | TGI (EKVX NSCLC): 32.5 µM | TGI (HT29 colon): 24 µM | TGI (LOX IMVI melanoma): 16.5 µM | TGI (NCI-H226 lung): 33.2 µM | TGI (OVCAR-8 ovarian): 28.9 µM | TGI (PC-3 prostate): 23 µM | TGI (SF-268 CNS): 19.3 µM | TGI (SR leukemia): 11 µM | TGI (TK-10 renal): 30.8 µM | TGI (UO-31 renal): 30 µM

Cc1ccc2c(c1)C(C1Cc3c(C)cccc3C1=O)OC2=O (stereo unspecified)
TGI (BT-549 breast): > 100 µM | TGI (EKVX NSCLC): > 100 µM | TGI (HT29 colon): > 100 µM | TGI (LOX IMVI melanoma): > 100 µM | TGI (NCI-H226 lung): > 100 µM | TGI (OVCAR-8 ovarian): > 100 µM | TGI (PC-3 prostate): > 100 µM | TGI (SF-268 CNS): > 100 µM | TGI (SR leukemia): > 100 µM | TGI (TK-10 renal): > 100 µM | TGI (UO-31 renal): > 100 µM

CC(=O)NNC=N/C(C#N)=C(\N)C#N
TGI (BT-549 breast): > 100 µM | TGI (EKVX NSCLC): > 100 µM | TGI (HT29 colon): > 100 µM | TGI (LOX IMVI melanoma): > 100 µM | TGI (NCI-H226 lung): > 100 µM | TGI (OVCAR-8 ovarian): > 100 µM | TGI (PC-3 prostate): > 100 µM | TGI (SF-268 CNS): > 100 µM | TGI (SR leukemia): > 100 µM | TGI (TK-10 renal): > 100 µM | TGI (UO-31 renal): > 100 µM

O=C(/C=C/c1ccc(O)c(O)c1)NC(CO)C(=O)O (stereo unspecified)
TGI (BT-549 breast): > 100 µM | TGI (EKVX NSCLC): > 100 µM | TGI (HT29 colon): > 100 µM | TGI (LOX IMVI melanoma): > 100 µM | TGI (NCI-H226 lung): > 100 µM | TGI (OVCAR-8 ovarian): > 100 µM | TGI (PC-3 prostate): > 100 µM | TGI (SF-268 CNS): > 100 µM | TGI (SR leukemia): > 100 µM | TGI (TK-10 renal): > 100 µM | TGI (UO-31 renal): > 100 µM

CC1=NC(=Cc2ccc(Cl)cc2)C(=O)N1n1c(-c2ccccc2)nc2ccccc2c1=O
TGI (BT-549 breast): > 100 µM | TGI (EKVX NSCLC): > 100 µM | TGI (HT29 colon): > 100 µM | TGI (LOX IMVI melanoma): > 100 µM | TGI (NCI-H226 lung): > 100 µM | TGI (OVCAR-8 ovarian): > 100 µM | TGI (PC-3 prostate): > 100 µM | TGI (SF-268 CNS): > 100 µM | TGI (SR leukemia): > 100 µM | TGI (TK-10 renal): > 100 µM | TGI (UO-31 renal): > 100 µM

Cc1ccc(S(=O)(=O)N(c2ccccc2F)C2CCCCC2O)cc1 (stereo unspecified)
TGI (BT-549 breast): 61.8 µM | TGI (EKVX NSCLC): > 100 µM | TGI (HT29 colon): > 100 µM | TGI (LOX IMVI melanoma): > 100 µM | TGI (NCI-H226 lung): > 100 µM | TGI (OVCAR-8 ovarian): > 100 µM | TGI (PC-3 prostate): > 100 µM | TGI (SF-268 CNS): > 100 µM | TGI (SR leukemia): 51.8 µM | TGI (TK-10 renal): > 100 µM | TGI (UO-31 renal): > 100 µM

Cc1sc2ncnc(NCCc3ccccc3)c2c1C
TGI (BT-549 breast): 62.9 µM | TGI (EKVX NSCLC): 13.9 µM | TGI (HT29 colon): 45.3 µM | TGI (LOX IMVI melanoma): 22.4 µM | TGI (NCI-H226 lung): 42.3 µM | TGI (OVCAR-8 ovarian): 38 µM | TGI (PC-3 prostate): 40.3 µM | TGI (SF-268 CNS): 60.1 µM | TGI (SR leukemia): 26.6 µM | TGI (TK-10 renal): 46.5 µM | TGI (UO-31 renal): 38.8 µM

Oc1ccccc1C=Nc1ccc(Oc2ccc(Cl)cc2)c(Cl)c1
TGI (BT-549 breast): 44.4 µM | TGI (EKVX NSCLC): 52 µM | TGI (HT29 colon): 40.1 µM | TGI (LOX IMVI melanoma): 41 µM | TGI (NCI-H226 lung): 93.9 µM | TGI (OVCAR-8 ovarian): 57.9 µM | TGI (PC-3 prostate): 53.6 µM | TGI (SF-268 CNS): 43.5 µM | TGI (SR leukemia): 69.3 µM | TGI (TK-10 renal): > 100 µM | TGI (UO-31 renal): 24.2 µM

O=C(CNC(=O)OCc1ccccc1)NCCCCC(NC(=O)OCc1ccccc1)C(=O)O (stereo unspecified)
TGI (BT-549 breast): > 100 µM | TGI (EKVX NSCLC): > 100 µM | TGI (HT29 colon): > 100 µM | TGI (LOX IMVI melanoma): > 100 µM | TGI (NCI-H226 lung): > 100 µM | TGI (OVCAR-8 ovarian): > 100 µM | TGI (PC-3 prostate): > 100 µM | TGI (SF-268 CNS): > 100 µM | TGI (SR leukemia): > 100 µM | TGI (TK-10 renal): > 100 µM | TGI (UO-31 renal): > 100 µM

Cc1ccc2c(ccc3c[n+]4ccccc4c(C)c32)c1
TGI (BT-549 breast): 5.74 µM | TGI (EKVX NSCLC): > 100 µM | TGI (HT29 colon): 25.9 µM | TGI (LOX IMVI melanoma): 27.8 µM | TGI (NCI-H226 lung): 5.71 µM | TGI (OVCAR-8 ovarian): 16.2 µM | TGI (PC-3 prostate): 15.9 µM | TGI (SF-268 CNS): 6.64 µM | TGI (SR leukemia): 46.3 µM | TGI (TK-10 renal): 89.9 µM | TGI (UO-31 renal): > 100 µM

Source: PubChem BioAssay (NCI)
